Data from US20180128830A1, “DETECTION OF HUMAN CYTOMEGALOVIRUS IN BREAST CANCER” (priority 2015, published 2018).
Several values for one entry are separate records, joined by “and”; a condition that tells them apart may be missing. Identical values can stand only once.

What was measured:
MDA-MB-231 cells [1] = test: Transcriptional profiling, Human Tumor Metastasis RT2 Profiler PCR Array; type: cell-based; conditions: 100 ng/mL, 5 hrs
Experimental: RNA was harvested from 10×10^6 MDA-MB-231 cells that were mock treated or treated with 100 ng/mL cmvIL-10 or hIL-10 for 5 hrs using the RNeasy Midi Kit and RNAse-Free DNase set (Qiagen, Valencia, Calif.). From the isolated RNA, cDNA was prepared using the RT^2 First Strand Kit (SA Biosciences, Frederick, Md.) and subsequently loaded into a 96-well breast cancer metastasis profiler PCR array (PAHS-028ZD) with system RT^2 SYBR Green Mastermix (SA Biosciences). The plates were run using the CFX96 Real-Time system cycler (BioRad, Hercules, Calif.) with the following amplification program: 95° C. for 10 min, 95° C. for […] with a slow ramp rate for 1.0 c/sec and 60° C. for 1 min. The data from three biological replicates for each treatment was analyzed by the ΔΔCT method according to manufacturer's instructions using the RT^2 profiler PCR array data analysis program located on the SABiosciences web portal and is reported as fold change relative to control.

MDA-MB-231 cells [2] = test: Migration assay toward EGF (modified Boyden chamber); type: cell-based, human; conditions: no EGF, 5 hrs
Experimental: Cells were harvested and resuspended at a density of 2×10^6 cells per ml in complete medium. A total volume of 0.1 ml cell suspension (2×10^5 cells) was placed in the upper chamber of a ThinCert filter with 8 μm pores in a 24-well plate (Greiner Bio-One North America, Monroe, Calif.). […] Medium from the lower chamber was collected, used to rinse the bottom of the filter twice, and then centrifuged at 1000 rpm for 10 min. The cell pellet was resuspended in 0.1 ml media and transferred to a white 96-well plate. Viable cell number was quantified using the Cell Titer Glo Assay kit according to the manufacturer's protocol.

PAI-1 = PAI-1 ELISA on culture supernatants; type: cell-based, human; conditions: 10 ng/ml, after 24 hours, maintained over 72 hours
Experimental: (§1) DuoSet ELISA kits (R&D Systems) were used to quantify uPAR, PAI-1, and MMP-3. For uPAR and PAI-1 measurement, MDA cells were seeded in triplicate in 96-well plate at 5.0×10^4 cell/mL density with complete L-15 media and treated with 10 ng/mL of either cmvIL-10 or hIL-10 for the indicated times and supernatants were collected daily. The ELISA was carried out on supernatants according to manufacturer's instructions using and following the addition of substrate and stop solution, absorbance of the plate was measured at 450 nm using a Dynex Opsys MR microplate reader. Sample concentrations were interpolated from a standard curve using linear regression analysis. For cell-associated MMP-3, MDA cells were seeded in 96-well plates and treated with cmvIL-10 as above. Cells were treated with cell lysis buffer (150 mM NaCl, 20 mM HEPES, 0.5% Triton-X-100, 1.0 mM NaOV4, 1.0 mM EDTA, 0.1% NaN3) supplemented with 1× protease inhibitors (Calbiochem, EMD Chemicals, San Diego Calif.) and were collected daily for the indicated time points. The lysates were evaluated for MMP-3 according to the manufacturer's instructions (R&D Systems).

uPAR = uPAR ELISA on culture supernatants; type: cell-based, human; conditions: 10 ng/ml
Experimental: as §1

Substance: hIL-10: purified recombinant human interleukin-10 from R&D Systems
- Fold Change vs. Mock, ACTB (MDA-MB-231 cells [1]; ACTB mRNA): 1.3287 fold
- Fold Change vs. Mock, APC (MDA-MB-231 cells [1]; APC mRNA): 1.0052 fold
- Fold Change vs. Mock, B2M (MDA-MB-231 cells [1]; B2M mRNA): 0.9897 fold
- Fold Change vs. Mock, BRMS1 (MDA-MB-231 cells [1]; BRMS1 mRNA): 1.1154 fold
- Fold Change vs. Mock, CCL7 (MDA-MB-231 cells [1]; CCL7 mRNA): 0.9314 fold
- Fold Change vs. Mock, CD44 (MDA-MB-231 cells [1]; CD44 mRNA): 1.3402 fold
- Fold Change vs. Mock, CD82 (MDA-MB-231 cells [1]; CD82 mRNA): 1.1019 fold
- Fold Change vs. Mock, CDH1 (MDA-MB-231 cells [1]; CDH1 mRNA): 0.7618 fold
- Fold Change vs. Mock, CDH6 (MDA-MB-231 cells [1]; CDH6 mRNA): 0.9314 fold
- Fold Change vs. Mock, CDH11 (MDA-MB-231 cells [1]; CDH11 mRNA): 1.0425 fold
- Fold Change vs. Mock, CDKN2A (MDA-MB-231 cells [1]; CDKN2A mRNA): 0.9314 fold
- Fold Change vs. Mock, CHD4 (MDA-MB-231 cells [1]; CHD4 mRNA): 1.1115 fold
- Fold Change vs. Mock, COL4A2 (MDA-MB-231 cells [1]; COL4A2 mRNA): 1.51 fold and 1.5131 fold
- Fold Change vs. Mock, CST7 (MDA-MB-231 cells [1]; CST7 mRNA): 0.8858 fold
- Fold Change vs. Mock, CTBP1 (MDA-MB-231 cells [1]; CTBP1 mRNA): 0.9576 fold
- Fold Change vs. Mock, CTNNA1 (MDA-MB-231 cells [1]; CTNNA1 mRNA): 0.9428 fold
- Fold Change vs. Mock, CTSK (MDA-MB-231 cells [1]; CTSK mRNA): 0.8482 fold
- Fold Change vs. Mock, CTSL1 (MDA-MB-231 cells [1]; CTSL1 mRNA): 0.8981 fold
- Fold Change vs. Mock, CXCL12 (MDA-MB-231 cells [1]; CXCL12 mRNA): 0.9314 fold
- Fold Change vs. Mock, CXCR4 (MDA-MB-231 cells [1]; CXCR4 mRNA): 0.8751 fold
- Fold Change vs. Mock, DENR (MDA-MB-231 cells [1]; DENR mRNA): 0.9626 fold
- Fold Change vs. Mock, EPHB2 (MDA-MB-231 cells [1]; EPHB2 mRNA): 0.9028 fold
- Fold Change vs. Mock, ETV4 (MDA-MB-231 cells [1]; ETV4 mRNA): 1.0175 fold
- Fold Change vs. Mock, EWSR1 (MDA-MB-231 cells [1]; EWSR1 mRNA): 1.3104 fold
- Fold Change vs. Mock, FAT1 (MDA-MB-231 cells [1]; FAT1 mRNA): 1.4414 fold
- Fold Change vs. Mock, FGFR4 (MDA-MB-231 cells [1]; FGFR4 mRNA): 0.9693 fold
- Fold Change vs. Mock, FLT4 (MDA-MB-231 cells [1]; FLT4 mRNA): 1.0317 fold
- Fold Change vs. Mock, FN1 (MDA-MB-231 cells [1]; FN1 mRNA): 1.2100 fold
- Fold Change vs. Mock, FXYD5 (MDA-MB-231 cells [1]; FXYD5 mRNA): 1.0479 fold
- Fold Change vs. Mock, GAPDH (MDA-MB-231 cells [1]; GAPDH mRNA): 1.2121 fold
- Fold Change vs. Mock, GNRH1 (MDA-MB-231 cells [1]; GNRH1 mRNA): 1.1647 fold
- Fold Change vs. Mock, HGF (MDA-MB-231 cells [1]; HGF mRNA): 0.9314 fold
- Fold Change vs. Mock, HPRT1 (MDA-MB-231 cells [1]; HPRT1 mRNA): 1.3827 fold
- Fold Change vs. Mock, HPSE (MDA-MB-231 cells [1]; HPSE mRNA): 0.8645 fold
- Fold Change vs. Mock, HRAS (MDA-MB-231 cells [1]; HRAS mRNA): 1.0625 fold
- Fold Change vs. Mock, HTATIP2 (MDA-MB-231 cells [1]; HTATIP2 mRNA): 0.9138 fold
- Fold Change vs. Mock, IGF1 (MDA-MB-231 cells [1]; IGF1 mRNA): 0.9794 fold
- Fold Change vs. Mock, IL1B (MDA-MB-231 cells [1]; IL1B mRNA): 0.6771 fold
- Fold Change vs. Mock, IL18 (MDA-MB-231 cells [1]; IL18 mRNA): 0.7526 fold
- Fold Change vs. Mock, ITGA7 (MDA-MB-231 cells [1]; ITGA7 mRNA): 0.8796 fold
- Fold Change vs. Mock, ITGB3 (MDA-MB-231 cells [1]; ITGB3 mRNA): 1.0317 fold
- Fold Change vs. Mock, KISS1R (MDA-MB-231 cells [1]; KISS1R mRNA): 0.9314 fold
- Fold Change vs. Mock, KISS1 (MDA-MB-231 cells [1]; KISS1 mRNA): 1.5856 fold
- Fold Change vs. Mock, KRAS (MDA-MB-231 cells [1]; KRAS mRNA): 0.9931 fold
- Fold Change vs. Mock, MCAM (MDA-MB-231 cells [1]; MCAM mRNA): 1.0353 fold
- Fold Change vs. Mock, MDM2 (MDA-MB-231 cells [1]; MDM2 mRNA): 0.9461 fold
- Fold Change vs. Mock, MET (MDA-MB-231 cells [1]; MET mRNA): 1.1173 fold
- Fold Change vs. Mock, METAP2 (MDA-MB-231 cells [1]; METAP2 mRNA): 1.0736 fold
- Fold Change vs. Mock, MGAT5 (MDA-MB-231 cells [1]; MGAT5 mRNA): 1.3590 fold
- Fold Change vs. Mock, MMP2 (MDA-MB-231 cells [1]; MMP2 mRNA): 1.5157 fold
- Fold Change vs. Mock, MMP3 (MDA-MB-231 cells [1]; MMP3 mRNA): 0.8080 fold
- Fold Change vs. Mock, MMP7 (MDA-MB-231 cells [1]; MMP7 mRNA): 0.8123 fold
- Fold Change vs. Mock, MMP9 (MDA-MB-231 cells [1]; MMP9 mRNA): 0.9347 fold
- Fold Change vs. Mock, MMP10 (MDA-MB-231 cells [1]; MMP10 mRNA): 0.6866 fold
- Fold Change vs. Mock, MMP11 (MDA-MB-231 cells [1]; MMP11 mRNA): 1.0867 fold
- Fold Change vs. Mock, MMP13 (MDA-MB-231 cells [1]; MMP13 mRNA): 0.9777 fold
- Fold Change vs. Mock, MTA1 (MDA-MB-231 cells [1]; MTA1 mRNA): 0.9395 fold
- Fold Change vs. Mock, MTSS1 (MDA-MB-231 cells [1]; MTSS1 mRNA): 1.2397 fold
- Fold Change vs. Mock, MYC (MDA-MB-231 cells [1]; MYC mRNA): 0.7423 fold
- Fold Change vs. Mock, MYCL1 (MDA-MB-231 cells [1]; MYCL1 mRNA): 1.0644 fold
- Fold Change vs. Mock, NF2 (MDA-MB-231 cells [1]; NF2 mRNA): 1.3496 fold
- Fold Change vs. Mock, NME1 (MDA-MB-231 cells [1]; NME1 mRNA): 1.1000 fold
- Fold Change vs. Mock, NME4 (MDA-MB-231 cells [1]; NME4 mRNA): 0.9965 fold
- Fold Change vs. Mock, NR4A3 (MDA-MB-231 cells [1]; NR4A3 mRNA): 0.8151 fold
- Fold Change vs. Mock, PLAUR (MDA-MB-231 cells [1]; PLAUR (uPAR) mRNA): 1.87 fold and 1.8628 fold
- Fold Change vs. Mock, PNN (MDA-MB-231 cells [1]; PNN mRNA): 1.2901 fold
- Fold Change vs. Mock, PTEN (MDA-MB-231 cells [1]; PTEN mRNA): 0.8645 fold
- Fold Change vs. Mock, RB1 (MDA-MB-231 cells [1]; RB1 mRNA): 0.9298 fold
- Fold Change vs. Mock, RORB (MDA-MB-231 cells [1]; RORB mRNA): 0.8827 fold
- Fold Change vs. Mock, RPLP0 (MDA-MB-231 cells [1]; RPLP0 mRNA): 1.0000 fold
- Fold Change vs. Mock, RPSA (MDA-MB-231 cells [1]; RPSA mRNA): 1.0886 fold
- Fold Change vs. Mock, SERPINE1 (MDA-MB-231 cells [1]; SERPINE1 (PAI-1) mRNA): 3.12 fold and 3.0262 fold
- Fold Change vs. Mock, SET (MDA-MB-231 cells [1]; SET mRNA): 0.9234 fold
- Fold Change vs. Mock, SMAD2 (MDA-MB-231 cells [1]; SMAD2 mRNA): 0.7859 fold
- Fold Change vs. Mock, SMAD4 (MDA-MB-231 cells [1]; SMAD4 mRNA): 0.8279 fold
- Fold Change vs. Mock, SRC (MDA-MB-231 cells [1]; SRC mRNA): 0.9760 fold
- Fold Change vs. Mock, SSTR2 (MDA-MB-231 cells [1]; SSTR2 mRNA): 0.7120 fold
- Fold Change vs. Mock, SYK (MDA-MB-231 cells [1]; SYK mRNA): 0.9314 fold
- Fold Change vs. Mock, TCF20 (MDA-MB-231 cells [1]; TCF20 mRNA): 0.9676 fold
- Fold Change vs. Mock, TGEB1 (MDA-MB-231 cells [1]; TGEB1 (Transforming growth factor, beta 1) mRNA): 0.9931 fold
- Fold Change vs. Mock, TIMP2 (MDA-MB-231 cells [1]; TIMP2 mRNA): 0.8601 fold
- Fold Change vs. Mock, TIMP3 (MDA-MB-231 cells [1]; TIMP3 mRNA): 0.7631 fold
- Fold Change vs. Mock, TIMP4 (MDA-MB-231 cells [1]; TIMP4 mRNA): 0.9122 fold
- Fold Change vs. Mock, TNFSF10 (MDA-MB-231 cells [1]; TNFSF10 mRNA): 0.7955 fold
- Fold Change vs. Mock, TP53 (MDA-MB-231 cells [1]; TP53 mRNA): 0.8873 fold
- Fold Change vs. Mock, TRPM1 (MDA-MB-231 cells [1]; TRPM1 mRNA): 0.9314 fold
- Fold Change vs. Mock, TSHR (MDA-MB-231 cells [1]; TSHR mRNA): 0.9314 fold
- Fold Change vs. Mock, VEGFA (MDA-MB-231 cells [1]; VEGFA mRNA): 0.5987 fold
- VEGFA fold change expressed as negative fold (down-regulation) (MDA-MB-231 cells [1]; VEGFA mRNA): 1.67 fold
- cell movement toward cytokine alone (MDA-MB-231 cells [2]): failed to stimulate cell movement
- PAI-1 production (PAI-1): significant increase in PAI-1 production
- uPAR protein levels (uPAR): elevated
